Measurements as given in patent US12018045B2, “17-beta-hydroxywithanolides and use thereof in treating cancer” (The United States of America, as represented by the …, priority 2018, dated 2024).

Key:
cFLIP [1] = test: cFLIP levels in 22Rv1 prostate cancer cells (Western blot); assay type: cell-based; details: 22Rv1 cells; 125 nM, 250 nM, or 500 nM
Description: 22Rv1 prostate cancer cells were treated with 125 nM, 250 nM, or 500 nM of compounds 1 or 3.

cFLIP [2] = test: cFLIP levels in LNCaP prostate cancer cells (Western blot); assay type: cell-based; details: 125 nM, 250 nM, or 500 nM
Description: LNCaP prostate cancer cells were treated with 125 nM, 250 nM, or 500 nM of compounds 1 or 3.

[3] = test system: 22Rv1 prostate cancer cells; test: Growth inhibition of 22Rv1 prostate cancer cells; assay type: cell-based; details: Homo sapiens
Description: (§1) LNCaP and 22Rv1 prostate cancer cells and human fibroblasts HFF cells were treated with compounds 1, 2, 3, and 4.

[4] = test system: ACHN, SN12C, Caki-2, TK-10, and UO-31 renal carcinoma cells; test: Sensitization of renal carcinoma cell lines to TRAIL apoptosis, comparison with IAP and Bcl-2 antagonists; assay type: cell-based, human; details: 5 renal carcinomas; compared to Birinapant, GDC-0152, LCL-161, ABT-199 and ABT-737
Description: ACHN, S[…], Caki-2, TK-10, and UO-31 cells were treated with compound 1, the IAP antagonists Birinapant, GDC-0152, or LCL-161 and the Bcl-2 antagonists ABT-199 and ABT-737 in the presence and absence of TRAIL.

SK-MEL-28 melanoma cells = test: Killing of SK-MEL-28 melanoma cells by activated human T cells (crystal violet); assay type: cell-based; details: PCC 500 nM 24 h before T cells
Description: 6 well costar plates were precoated with anti-CD3 (1 ug/ml) in PBS overnight at 4° C. Wells were washed with PBS then blocked with RPMI+10% FBS for 30 min before adding anti-CD28 (0.2 ug/ml) and purified T cells.
T cells were isolated from human PBMCs using Pan T cell isolation kit (Miltenyi Biotech) as per manufacturers protocol, added to the costar plates and incubated at 37° C. 24 hours later activated T cells were used as effectors.
SK-MEL-28 cells (200,000) were added to costar 6 plates. After 24 h PCC (500 nM) or control DMSO was added, followed 24 h later by addition of activated T cells at different target to effector ratios. After a further 24 hours plates were washed and adherent melanoma cells were fixed with methanol and stained with crystal violet.
SK-MEL-28 melanoma cells were treated with media, compound 1, or compound 1+α-TNFα and then incubated with the activated human T cells.

[5] = test system: LNCaP prostate cancer cells; test: Growth inhibition of LNCaP prostate cancer cells; assay type: cell-based; details: Homo sapiens
Description: as §1

[6] = test system: human fibroblasts HFF cells; test: Growth inhibition of human fibroblasts HFF cells; assay type: cell-based
Description: as §1

[7] = test system: 888, 1383, and Baldwin renal melanoma cells; test: Sensitization of 888, 1383 and Baldwin melanoma cells to TRAIL apoptosis; assay type: cell-based, human; details: 888, 1383, Baldwin melanoma cells; compared to Birinapant or ABT-737
Description: 888, 1383, and Baldwin renal melanoma cells were treated with compound 1 of compound 3, the Birinapant, or ABT-737 in the presence and absence of TRAIL.

cFLIP [8] = test: cFLIP reduction in ACHN cells (Western blotting); assay type: cell-based, human; details: ACHN renal carcinoma cells; 125, 250, 500 nM; 24 h; compared with compound 1
Description: This example the effect of compounds 1 and 3 on the reduction of cFLIP in ACHN human carcinoma cells as a function of concentration after 24 exposure to the compounds.
ACHN human renal carcinoma cells were treated with 125 nM, 250 nM, and 500 nM of compounds 1 and 3. After 24 h exposure to the compounds, Western blotting was performed to separate FLIPL and FLIPS, and the results shown in FIG. 3.

B16F10 melanoma = B16F10 melanoma xenograft model in C57B/6 mice; assay type: in vivo; details: intra-tumor twice a week for 3 weeks; versus vehicle and compound 1
Description: C57B/6 mice were injected with 5×10^5 B16F10 melanoma cells s.c. Tumors were allowed to grow 8-10 days and then vehicle, compound 1, or compound 3 were injected intra-tumor twice a week for 3 weeks. Tumor growth was monitored until endpoint.

cFLIP [9] = test: cFLIP reduction in M14 melanoma cells (Western blotting); assay type: cell-based, human; details: 0-500 nM, 24 h, compared with compound 1
Description: M14 human melanoma cells were treated with 0, 31.25, 62.5, 125, 250, or 500 nM of compounds 1 and 3. After 24 h, Western blotting was performed to separate cFLIPL, cFLIPS, and GAPDH.

CC(=O)OC[C@]12CC[C@H]3[C@@H](C[C@H]4O[C@]45CC=CC(=O)[C@]35C)[C@]1(O)CC[C@@]2(O)[C@@](C)(O)[C@H]1CC(C)=C(C)C(=O)O1 [Compound 1, Physachenolide C]
cFLIP levels (cFLIP [1]): reduction of cFLIP levels | cFLIP levels (cFLIP [2]): reduction of cFLIP levels | IC50 [3]: 48 ± 2 nM | sensitization of TRAIL apoptosis [4]: superior results | killing of human melanoma cells by activated T cells (SK-MEL-28 melanoma cells): enhanced the killing | IC50 [5]: 37 ± 2 nM | IC50 [6]: > 2000 nM | sensitization of TRAIL apoptosis [7]: superior results

CC1=C(C)C(=O)O[C@@H]([C@](C)(O)[C@]2(O)CC[C@@]3(O)[C@@H]4C[C@H]5O[C@]56CC=CC(=O)[C@]6(C)[C@H]4CC[C@]23COC(=O)c2ccc(C)o2)C1 [Compound 3, withaperuvin E]
cFLIP levels (cFLIP [1]): reduction of cFLIP levels | cFLIP levels (cFLIP [2]): reduction of cFLIP levels | cFLIP reduction (cFLIP [8]): elevated activity over compound 1 | IC50 [3]: 10 ± 2 nM | tumor volume (B16F10 melanoma): lowest | cFLIP reduction (cFLIP [9]): elevated activity over compound 1 | IC50 [5]: 14 ± 1 nM | IC50 [6]: 892 ± 119 nM | sensitization of TRAIL apoptosis [7]: superior results

CC1=C(C)C(=O)O[C@@H]([C@](C)(O)[C@]2(O)CC[C@@]3(O)[C@@H]4C[C@H]5O[C@]56CC=CC(=O)[C@]6(C)[C@H]4CC[C@]23COC(=O)c2ccc(C)nc2)C1 [Compound 4]
IC50 [3]: 17 ± 1 nM | IC50 [5]: 17 ± 8 nM | IC50 [6]: 945 ± 92 nM

COc1ccc(C(=O)OC[C@]23CC[C@H]4[C@@H](C[C@H]5O[C@]56CC=CC(=O)[C@]46C)[C@]2(O)CC[C@@]3(O)[C@@](C)(O)[C@H]2CC(C)=C(C)C(=O)O2)cc1 [Compound 2]
IC50 [3]: 16 ± 4 nM | IC50 [5]: 18 ± 2 nM | IC50 [6]: 938 ± 10 nM
